Source: US6777412B2 (priority 1990, dated 2004)
Read-outs that look alike come from different tables or passages of the source. Marks after values point to notes of the source that are not given here.

How the values were obtained:
Format in all cases: in vivo
Puccinia recondita = experiment: Foliar fungal disease test on plants: Puccinia recondita (Pr)
In short: (§1)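 Potted plants treated by foliar spray to maximum retention (100 ppm a.i. unless stated) plus root drench (~40 ppm a.i. in dry soil), with 0.05% Tween 20 on cereals, one or two days before spore-suspension inoculation.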

Erysiphe graminis hordei = experiment: Foliar fungal disease test on plants: Erysiphe graminis hordei (Egh)
Experimental: (§2) The compounds were tested against a variety of foliar fungal diseases of plants. The technique employed was as follows.
(§3) The plants were grown in John Innes Potting Compost (No.1 or 2) in 4 cm diameter minipots. The test compounds were formulated either by bead milling with aqueous Dispersol T or as a solution in acetone or acetone/ethanol which was diluted to the required concentration immediately before use. For the foliage diseases, the formulations (100 ppm active ingredient except where otherwise indicated) were sprayed onto the foliage and applied to the roots of the plants in the soil. The sprays were applied to maximum retention and the root drenches to a final concentration equivalent to approximately 40 ppm a.i. in dry soil. Tween 20, to give a final concentration of 0.05%, was added when the sprays were applied to cereals.
(§4) For most of the tests the compound was applied to the soil (roots) and to the foliage (by spraying) one or two days before the plant was inoculated with the disease. An exception was the test on Erysiphe graminis in which the plants were inoculated 24 hours before treatment. Foliar pathogens were applied by spray as spore suspensions onto the leaves of test plants. After inoculation, the plants were put into an appropriate environment to allow infection to proceed and then incubated until the disease was ready for assessment. The period between inoculation and assessment varied from four to fourteen days according to the disease and environment.
(§5) The disease control vas recorded by the following grading:
(§6) 3=trace-5% of disease on untreated plants
(§7) 2=6-25% of disease on untreated plants
(§8) 1=26-59% of disease on untreated plants
(§9) 0=60-100% of disease on untreated plants
Egh Erysiphe graminis hordei

Pyricularia oryzae = tested on: Pyricularia oryzae
Thanatephorus cucumeris = experiment: Foliar fungal disease test on plants: Thanatephorus cucumeris (Tc)
Experimental: as §2, §3, §4, §5, §6, §7, §8, §9
Tc Thanatephorus cucumeris

Venturia inaequalis = experiment: Foliar fungal disease test on plants: Venturia inaequalis (Vi)
In short: as §1

Plasmopara viticola = experiment: Foliar fungal disease test on plants: Plasmopara viticola (Pv)
In short: as §1

[1] = tested on: Phytophthora infestans lycopersici
Septoria nodorum = experiment: Foliar fungal disease test on plants: Septoria nodorum (Sn)
Experimental: as §2, §3, §4, §5, §6, §7, §8, §9

[2] = 100 ppm active ingredient foliar spray plus root drench (approx. 40 ppm a.i. in dry soil), one or two days before inoculation
[3] = 100 ppm active ingredient foliar spray plus root drench (approx. 40 ppm a.i. in dry soil), plants inoculated 24 hours before treatment

SMILES	disease control grading, Pr (Puccinia recondita) (Puccinia recondita; [2])	disease control grading, Egh (Erysiphe graminis hordei) (Erysiphe graminis hordei; [3])	disease control grading, Po (Pyricularia oryzae) (Pyricularia oryzae; [2])	disease control grading, Tc (Thanatephorus cucumeris) (Thanatephorus cucumeris; [2])	disease control grading, Vi (Venturia inaegualis) (Venturia inaequalis; [2])	disease control grading, Pv (Plasmopara viticola) (Plasmopara viticola; [2])	disease control grading, Pil (Phytophthora infestans lycopersici) [1, 2]	disease control grading, Pr (Puccinia recondita) (Puccinia recondita; 10 ppm foliar application only)	disease control grading, Egh (Erysiphe graminis hordei) (Erysiphe graminis hordei; 10 ppm foliar application only)	disease control grading, Sn (Septoria nodorum) (Septoria nodorum; 10 ppm foliar application only)	disease control grading, Po (Pyricularia oryzae) (Pyricularia oryzae; 10 ppm foliar application only)	disease control grading, Tc (Thanatephorus cucumeris) (Thanatephorus cucumeris; 10 ppm foliar application only)	disease control grading, Vi (Venturia inaegualis) (Venturia inaequalis; 10 ppm foliar application only)	disease control grading, Pv (Plasmopara viticola) (Plasmopara viticola; 10 ppm foliar application only)	disease control grading, Pil (Phytophthora infestans lycopersici) ([1]; 10 ppm foliar application only)	disease control grading, Sn (Septoria nodorum) (Septoria nodorum; [2])
CO/C=C(/C(=O)OC)c1ccccc1Oc1cc(OCc2ccc([N+](=O)[O-])cc2)ncn1 [133 of Table I]	4 (4=no disease)	4 (4=no disease)	3 (3=trace-5% of disease on untreated plants)	4 (4=no disease)	3 (3=trace-5% of disease on untreated plants)	4 (4=no disease)	0 (0=60-100% of disease on untreated plants)									
CO/C=C(/C(=O)OC)c1ccccc1Oc1cc(OCc2ccccc2[N+](=O)[O-])ncn1 [375 of Table I]	4 (4=no disease)	4 (4=no disease)	4 (4=no disease)	4 (4=no disease)	3 (3=trace-5% of disease on untreated plants)	3 (3=trace-5% of disease on untreated plants)	0 (0=60-100% of disease on untreated plants)									
CO/C=C(/C(=O)OC)c1ccccc1Oc1cc(OC/C=C/c2ccccc2)ncn1 [376 of Table I]	4 (4=no disease)	4 (4=no disease)	3 (3=trace-5% of disease on untreated plants)	4 (4=no disease)	4 (4=no disease)	4 (4=no disease)	4 (4=no disease)									
CO/C=C(/C(=O)OC)c1ccccc1Oc1cc(OCc2c(Cl)cccc2C(F)(F)F)ncn1 [383 of Table I]								4^a (4=no disease)	0^a (0=60-100% of disease on untreated plants)	4^a (4=no disease)	0^a (0=60-100% of disease on untreated plants)	4^a (4=no disease)	3^a (3=trace-5% of disease on untreated plants)	4^a (4=no disease)	0^a (0=60-100% of disease on untreated plants)	
CO/C=C(/C(=O)OC)c1ccccc1Oc1cc(OCCCc2ccccc2Cl)ncn1 [384 of Table I]	4 (4=no disease)	4 (4=no disease)		4 (4=no disease)	4 (4=no disease)	4 (4=no disease)	4 (4=no disease)									4 (4=no disease)
CO/C=C(/C(=O)OC)c1ccccc1Oc1cc(OCc2ccccc2C(F)(F)F)ncn1 [385 of Table I]	4 (4=no disease)	4 (4=no disease)		4 (4=no disease)	4 (4=no disease)	4 (4=no disease)	4 (4=no disease)									4 (4=no disease)
CO/C=C(/C(=O)OC)c1ccccc1Oc1cc(OCc2c(F)cccc2Cl)ncn1 [386 of Table I]	4 (4=no disease)	4 (4=no disease)	4 (4=no disease)	4 (4=no disease)	4 (4=no disease)	4 (4=no disease)	4 (4=no disease)									4 (4=no disease)
CO/C=C(/C(=O)OC)c1ccccc1Oc1cc(OCC#Cc2ccccc2)ncn1 [387 of Table I]	4 (4=no disease)	4 (4=no disease)	4 (4=no disease)	4 (4=no disease)	4 (4=no disease)	4 (4=no disease)	4 (4=no disease)									4 (4=no disease)
CO/C=C(/C(=O)OC)c1ccccc1Oc1cc(OCc2c(F)c(F)c(F)c(F)c2F)ncn1 [388 of Table I]	4 (4=no disease)	4 (4=no disease)	4 (4=no disease)	4 (4=no disease)	4 (4=no disease)	4 (4=no disease)	4 (4=no disease)									4 (4=no disease)
CO/C=C(/C(=O)OC)c1ccccc1Oc1cc(OCc2ccccc2C#N)ncn1 [389 of Table I]								4^a (4=no disease)	4^a (4=no disease)	4^a (4=no disease)	4^a (4=no disease)	4^a (4=no disease)	4^a (4=no disease)	4^a (4=no disease)	0^a (0=60-100% of disease on untreated plants)	
CO/C=C(/C(=O)OC)c1ccccc1Oc1cc(OCCOc2ccc(C#N)cc2)ncn1 [390 of Table I]	4 (4=no disease)	3 (3=trace-5% of disease on untreated plants)	4 (4=no disease)	1 (1=26-59% of disease on untreated plants)	4 (4=no disease)	4 (4=no disease)	0 (0=60-100% of disease on untreated plants)									3 (3=trace-5% of disease on untreated plants)
CO/C=C(/C(=O)OC)c1ccccc1Oc1cc(OCCSc2ccccc2)ncn1 [391 of Table I]	4 (4=no disease)	4 (4=no disease)	3 (3=trace-5% of disease on untreated plants)	4 (4=no disease)	4 (4=no disease)	4 (4=no disease)	4 (4=no disease)									4 (4=no disease)
CO/C=C(/C(=O)OC)c1ccccc1Oc1cc(N(C=O)c2ccccc2O)ncn1 [392 of Table I]								0^a (0=60-100% of disease on untreated plants)	0^a (0=60-100% of disease on untreated plants)	1^a (1=26-59% of disease on untreated plants)	0^a (0=60-100% of disease on untreated plants)	0^a (0=60-100% of disease on untreated plants)	0^a (0=60-100% of disease on untreated plants)	0^a (0=60-100% of disease on untreated plants)	0^a (0=60-100% of disease on untreated plants)	
CO/C=C(/C(=O)OC)c1ccccc1Oc1cc(OCCSc2ccccc2C#N)ncn1 [393 of Table I]	4 (4=no disease)	4 (4=no disease)	4 (4=no disease)	4 (4=no disease)	0 (0=60-100% of disease on untreated plants)	4 (4=no disease)	4 (4=no disease)									4 (4=no disease)
